Non-standard residues stand in square brackets, D forms with d. Residues, ends and D or L forms follow the SMILES beside them.
Legend:
[1] = biological target: T1, hGHRH(1-44)-NH2 binding sites in rat anterior pituitary (Rattus norvegicus, UniProt Q02644); assay: Relative binding affinity in rat anterior pituitary preparations, [125I-Tyr10]hGHRH(1-44)-NH2 radioligand; settings: values compared to hGHRH(1-29)-NH2
T1 construct: from tissue; host or cells: anterior pituitary of 2-month old male Sprague Dawley rats
T1 sequence (Q02644 23-423 isoform Q02644-2 limits assumed): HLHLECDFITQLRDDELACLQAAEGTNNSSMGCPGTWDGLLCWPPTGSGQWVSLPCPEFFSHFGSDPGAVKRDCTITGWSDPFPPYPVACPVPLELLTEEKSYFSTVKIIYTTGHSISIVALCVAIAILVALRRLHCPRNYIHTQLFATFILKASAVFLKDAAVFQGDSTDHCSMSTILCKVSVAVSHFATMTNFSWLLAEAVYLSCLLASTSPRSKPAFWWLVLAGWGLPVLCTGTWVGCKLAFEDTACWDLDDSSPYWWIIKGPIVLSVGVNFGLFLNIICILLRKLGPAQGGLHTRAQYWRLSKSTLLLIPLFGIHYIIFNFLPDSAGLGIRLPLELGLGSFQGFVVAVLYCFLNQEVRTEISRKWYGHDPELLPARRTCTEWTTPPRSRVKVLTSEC
Excerpt: Initial selection of a candidate from the original 14 polysubstituted GHRH analogs described in the U.S. Pat. No. 5,854,216 was based upon in vitro data on receptor affinity in 2-month old male Sprague Dawley rat anterior pituitary preparations. The embodiments are based on the affinity of selected GHRH analogs for the human GHRH receptor (hGHRH-R) in baby hamster kidney (BHK) cells transfected with hGHRH-R, and on resistance to proteolysis in rat serum, human plasma or human serum. More precisely, the preferred drug candidates were selected, as compared to hGHRH(1-29)-NH2, for: i-their increased relative binding affinity to hGHRH(1-44)-NH2 binding sites in rat anterior pituitary in vitro as well as to hGHRH-R in BHK-expressing cells in vitro; and ii-their relative resistance to proteolysis in vitro.

[2] = tested on: IGF-1, IGFBP-1 and IGFBP-3; assay: Phase II CKD: total IGF-1, IGFBP-1 and IGFBP-3; assay type: in vivo, human; settings: day 42
healthy male volunteers = assay: Phase I/II study in healthy male volunteers: safety and tolerability; assay type: in vivo, human
Method: In order to evaluate the safety of the drug, all reported adverse events were considered during the study. The effects of the drug exerted specifically on the liver, renal, thyroid, cardiac and haematological functions were evaluated. The MED was defined as the dose of the GHRH(1-29)NH2 synthetic analog lower than the subsequent dose that produced the best secretion profile of GH.
It was a crossover single-blinded Phase I/II trial of escalating doses of the GHRH(1-29)NH2 synthetic analog controlled versus placebo. Ten healthy middle-aged male volunteers, between 50 and 55 years old, were recruited. All 10 subjects received a single subcutaneous dose of the GHRH(1-29)NH2 synthetic analog (reconstituted in water for injection), per day for 5 days, in a dose range from 5 to 25 μg/kg of body weight (lower than the maximal dose used to treat GH deficiency in children, which was 30 μg/kg of body weight).
After signing the informed consent form, all volunteers were clinically evaluated by the investigator and a chest x-ray and basal electrocardiogram and routine laboratory tests were performed. The analysis included: haemogram (hematocrit, haemoglobin, complete blood cell count, mean cell volume (MCV), mean corpuscular haemoglobin concentration (MCHC) and platelet count), liver function tests (aminotransferases, total proteins, albumin, alkaline phosphatase, billirubin, lactate dehydrogenase and prothrombin time), biochemistry (creatinine, urea, sodium, potassium, calcium, phosphorus, fasting glucose and postprandial glucose), urinalysis (pH, glucose, blood, proteins, and leukocytes), triiodothyronine, thyroxin and thyroid stimulating hormone (TSH), serology, basal level of IGF-1 and urine drug abuse screening.
Once the volunteers were considered eligible, they were hospitalized for a period of 5 consecutive days. On Day 0 of admission successive samples of blood were taken to perform the basal secretion profile of GH during 24 hours. During 5-day hospitalization period, after the initial blood sampling to determine fasting glucose level, the appropriate dose of the GHRH(1-29)NH2 synthetic analog or placebo was administered and multiple samplings were performed to assess the profile of GH, postprandial glucose level and electrocardiogram after 60 minutes of the application of the GHRH(1-29)NH2 synthetic analog/placebo. Eight hours after drug administration, samples were obtained to determine IGF-1 level, thyroid hormones and routine analysis. After 30 days of admission, all the volunteers returned for new clinical evaluation to record any adverse events that could have occurred from the last day of hospitalization period and to take a blood sample for later determination of anti-GHRH(1-29)NH2 synthetic analog antibodies.

[3] = all volunteers, throughout the study

For CC[C@H](C)[C@H](NC(=O)[C@H](C)NC(=O)[C@H](CC(=O)O)NC(=O)[C@@H](C)NC(=O)[C@@H](N)Cc1ccc(O)cc1)C(=O)N[C@@H](Cc1ccccc1)C(=O)N[C@H](C(=O)N[C@@H](CC(N)=O)C(=O)N[C@@H](CO)C(=O)N[C@H](Cc1ccc(O)cc1)C(=O)N[C@@H](CCCNC(=N)N)C(=O)N[C@@H](CCCCN)C(=O)N[C@H](C(=O)N[C@@H](CC(C)C)C(=O)N[C@H](C)C(=O)N[C@@H](CCC(N)=O)C(=O)N[C@@H](CC(C)C)C(=O)N[C@@H](CO)C(=O)N[C@@H](C)C(=O)N[C@@H](CCCNC(=N)N)C(=O)N[C@@H](CCCCN)C(=O)N[C@@H](CCCCN)C(=O)N[C@@H](CC(C)C)C(=O)N[C@@H](CCC(N)=O)C(=O)N[C@@H](CC(=O)O)C(=O)N[C@H](C(=O)N[C@@H](CCSC)C(=O)N[C@@H](CO)C(=O)N[C@@H](CCCNC(=N)N)C(N)=O)[C@@H](C)CC)C(C)C)[C@@H](C)O [GHRH analog #5, [D-Ala^2, D-Tyr^10, D-Ala^15, Lys^22] hGHRH(1-29)-NH2] (H-Y[dA]DAIFTNS[dY]RKVL[dA]QLSARKKLQDIMSR-NH2), the “Relative binding affinity in rat anterior pituitary” value [1] was 1.04 ± 0.40, the “Median IGF-1 after treatment discontinuation” value [2] was 368.2 ng/mL and the Serious adverse events (healthy male volunteers; 5 to 25 μg/kg sc, healthy male volunteers) was “no serious adverse events were reported”. The “Aminotransferase elevation, one case” value (healthy male volunteers; Day 1 to Day 5) was “less than 2.5 times the upper normal limit”, the “Neutrophils, neutropenia case” value (healthy male volunteers; Day 2, after 10 μg/kg dose) was 1,406 neutrophyles/mm3 and the “White blood cells, leukopenia case” value (healthy male volunteers; Day 2, after 10 μg/kg dose) was 3,800 WBC/mm3. The “Eosinophils, eosinophilia in one volunteer” value (healthy male volunteers; Day 5, 5 μg/kg dose) was 808 eosinophyls/mm3, the “White blood cells, leukocytosis in one volunteer” value (healthy male volunteers; Day 5, 5 μg/kg dose) was 12,400 WBC/mm3 and the “Mean decrease of haematocrit” value (healthy male volunteers; [3]) was 10.1±1.9 points. For the same compound, the “Mean decrease of haemoglobin” value (healthy male volunteers; [3]) was 2.8 ± 0.8 g/dL and the “Thyroid anomalies, cardiac dysfunction” value (healthy male volunteers; human, in vivo) was “Neither thyroid anomalies nor cardiac dysfunction were reported”.
